Data reported in article PMC12752627, “Discovery of a Potent and Selective TEAD Degrader with Durable Degradation Activity” (Advanced Science, 2025).

Tests used:
TEAD1, TEAD3, and TEAD4 = test: Immunoblot dose-response in TEAD1-mNeonGreen fusion NCI-H1299 cells; assay type: cell-based; conditions: 6 h
Description: Immunoblotting was carried out as previously described.^[ [29] ^] Cells were seeded in 6‐well plates (Yeasen, #84011ES50) at a density of 1 million cells per well. The following day, cells were treated with compounds at the required concentrations, with the DMSO concentration kept below 0.4‰ to prevent toxic effects on the cells. The collected cell pellets were washed three times with PBS (Meilunbio, #MA0015) and resuspended in 120 µL of RIPA lysis buffer (Meilunbio, #MA0151) containing 1% protease inhibitor (Meilunbio, #MB2678‐2). The cells were then sonicated on ice and centrifuged at 12 000 rpm for 15 min at 4 °C to remove cellular debris. Protein concentrations were determined using the BCA Protein Quantification Kit (Meilunbio, #MA0082‐1). The protein samples were normalized, boiled at 99 °C for 10 min, and then subjected to electrophoresis on a 10% SDS‐PAGE gel. The separated protein bands were transferred to nitrocellulose membranes, blocked with TBST containing 5% BSA, and incubated with the indicated primary antibodies. Finally, the blots were imaged using an Amersham Typhoon NIR imager.

HOS cells = test: Cell viability assay (CTG, 72 h) HOS; assay type: cell-based; conditions: Homo sapiens, HOS, 72 h, 3-day compound treatment
Description: Cells were seeded at a density of 1000 cells per well in 96‐well flat‐bottomed cell culture plates and cultured overnight at 37 °C with 5% CO2 to allow for cell attachment. The following day, different concentrations of compounds were added using an I‐DOT dispenser. After 72 h, 25 µL of CellTiter‐Meiluncell Luminescent Cell Viability Reagent (Meilunbio, #PWL111‐2) was added and incubated for 15 min at room temperature. Luminescence signals were then measured using an Envision plate reader (Revvity). Data were analyzed using GraphPad Prism 9.5 software.^[ [30] ^]

ES2 xenograft = ES2 xenograft efficacy study; assay type: in vivo, BALB/c nude mice; conditions: 10 and 30 mg/kg
Description: Animal experiments were conducted by Medsyin (Shanghai) Co., Ltd. The experimental protocol was approved by the IACUC of the company (No.: PZWH‐2025031003) and strictly adhered to the guidelines of the AAALAC. The specific procedures are as follows: 5 × 10^6 MSTO‐211H cells or ES2 cells were suspended in 100 µL of a mixture of PBS and Matrigel and inoculated subcutaneously into the right axilla of 6‐week‐old BALB/c nude mice. Drug administration was initiated on day 7 after cell inoculation (when the average tumor volume was ≈150 mm^3). The experiment was divided into four groups with 6 mice in each group. The specific grouping and administration methods are as follows: control group, KY‐001 group (10 mg kg^−1, p.o.), KG‐FP‐003 (10 mg kg^−1 or 30 mg kg^−1, i.p.). The administration routes included intraperitoneal injection and intragastric administration, once a day for 21 consecutive days. During the experiment, the body weight and tumor volume of the mice were measured twice a week. At the end of the experiment, the mice were sacrificed and tumor tissues were collected.

A172 cells = test: DIA proteomics in A172 cells; assay type: cell-based, Homo sapiens; conditions: 100 nM, 24 h
Description: Cells were seeded in 6‐well plates at 1 × 10⁶ cells well^−1 and treated with 100 nM KG‐FP‐003 (n = 3). After 24 h incubation, cells were harvested, washed with ice‐cold PBS, and stored at −80 °C. Cell pellets were lysed in 4 volumes of lysis buffer (1% SDS, 1% protease inhibitor cocktail) followed by 3 min sonication on ice. After centrifugation (12 000 g, 10 min, 4 °C), supernatants were collected for BCA protein quantification. Proteins were reduced with 5 mM DTT (56 °C, 30 min), alkylated with 11 mM iodoacetamide (RT, dark, 15 min), and diluted with 200 mM TEAB to reduce urea concentration below 2 M. Trypsin digestion (1:50 enzyme‐to‐protein ratio) was performed at 37 °C overnight followed by additional 4 h digestion. Peptides were desalted using Strata‐X SPE columns. […] MS analysis was performed on a timsTOF Pro mass spectrometer in dia‐PASEF mode (ESI voltage: 1.75 kV; scan range: 300–1500 m z^−1). DIA data were processed using DIA‐NN (v1.8) against the Homo_sapiens_9606_SP_20 231 220.fasta database (20429 entries) with reversed decoys, using trypsin as the cleavage enzyme. Fixed modifications included N‐terminal methionine excision and carbamidomethylation of cysteine, with FDR set at <1%.

BMF, CTGF expression = test: RT-qPCR in MSTO-211H cells; assay type: cell-based
Description: Cells were seeded in 6‐well plates at a density of 1 million cells per well. The following day, different concentrations of compounds were added, and cells were collected after 24 h. For wash‐out experiments, cells were pre‐treated with compounds at indicated concentrations for 6 h, then cells were washed three times with PBS, and an equal volume of complete medium without compounds was added and incubated for another 18 h.
RNA was isolated and purified from the samples using the EZ‐10 Rotary Column Total RNA Isolation Kit (Sangon Biotech, B615012). After measuring the RNA concentration, 200 ng of purified RNA was used for genomic DNA removal and reverse transcription to cDNA with the HiScript III 1st Strand cDNA Synthesis Kit (+DNA wiper) (Vazyme, R312‐02). The resulting cDNA was then prepared into a reaction mix according to the ChamQ SYBR qPCR Mix (Vazyme, #q711‐02). Real‐time PCR analysis was performed using a QuantStudio 6 Pro real‐time PCR system (Thermo Fisher Scientific). Relative gene expression was calculated using the 2‐∆∆CT method. The primers used in this study were provided in the Supporting Information (Table S1, Supporting Information)

What does the source list for `CNC(=O)c1cc2c(c(F)c1-c1c(Cl)c(F)cc3c1C[C@@](CN[C@H]1CC[C@H](C(=O)N4CCC(CC5CCN(C(=O)COc6ccc(N7CCC(=O)NC7=O)c(C)c6)CC5)CC4)CC1)(c1ccccc1)O3)[C@@H](O)[C@@H](C)C2` [KG-FP-003]?
DC50 against TEAD1, TEAD3, and TEAD4 by immunoblot (TEAD1, TEAD3, and TEAD4): nanomolar range; IC50 (HOS cells): 1.2 ± 1.5 nM; Tumor response in ES2 xenograft (ES2 xenograft): significant tumor regression; Proteome-wide selectivity (A172 cells): significantly and selectively downregulated TEAD1 protein levels; Expression of TEAD target gene CTGF (qPCR) (BMF, CTGF expression): downregulation; Expression of pro-apoptotic gene BMF (qPCR) (BMF, CTGF expression): dramatic upregulation
